Measured values: PubChem BioAssay AID248 (DTP/NCI, 2004)
“And” between values parts separate entries of the source, which are not always exact repeats. Equal entries are not always repeated. Inconclusive results and toxic doses are left out.

Tested on: L1210 leukemia ip in BDF1 mice, survival T/C
Assay: NCI In Vivo Anticancer Drug Screen. Data for tumor model L1210 Leukemia (intraperitoneal) in B6D2F1 (BDF1) mice
Details: endpoint: mean survival time, higher = longer survival
Summary of the method: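 Each compound was tested against a transplantable tumor grown in mice. The endpoint was survival, with treated animals benchmarked against vehicle controls as a simple ratio.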

[1] = dose: 100.0 mg/kg/injection, schedule: Q01DX009 (ip), vehicle: saline
[2] = dose: 100.0 mg/kg/injection, schedule: Q04DX003 (ip), vehicle: saline
[3] = dose: 200.0 mg/kg/injection, schedule: Q01DX009 (ip), vehicle: saline
[4] = dose: 200.0 mg/kg/injection, schedule: Q04DX003 (ip), vehicle: saline
[5] = dose: 400.0 mg/kg/injection, schedule: Q04DX003 (ip), vehicle: saline
[6] = dose: 100.0 mg/kg/injection, schedule: Q01DX009 (ip), vehicle: saline with Tween-80
[7] = dose: 200.0 mg/kg/injection, schedule: Q01DX009 (ip), vehicle: saline with Tween-80

Q: Which results are given for `NC(=O)CCCN1CCCC1=O`?
A: T/C [1]: 100 % of control; T/C [2]: 100 % of control; T/C [3]: 111 % of control; T/C [4]: 101 % of control; T/C (dose: 400.0 mg/kg/injection, schedule: Q01DX009 (ip), vehicle: saline): 110 % of control; T/C [5]: 97 % of control

Q: How did the T/C (dose: 100.0 mg/kg/injection, schedule: Q04DX003 (ip), vehicle: saline with Tween-80) turn out when `COc1cc(NC(=O)CC(C)=O)c(OC)cc1Cl` was run?
A: 100 % of control

Q: And the T/C (dose: 200.0 mg/kg/injection, schedule: Q04DX003 (ip), vehicle: saline with Tween-80)?
A: 102 % of control

Q: What about the T/C (dose: 400.0 mg/kg/injection, schedule: Q04DX003 (ip), vehicle: saline with Tween-80) of the same compound?
A: 102 % of control

Q: Which results are given for `Cc1c(-c2ccccc2)cc(O)cc1-c1ccccc1`?
A: T/C (dose: 25.0 mg/kg/injection, schedule: Q01DX009 (ip), vehicle: saline): 98 % of control; T/C (dose: 50.0 mg/kg/injection, schedule: Q01DX009 (ip), vehicle: saline): 98 % of control; T/C [1]: 105 % of control; T/C [3]: 100 % of control

Q: With `CCCCOc1ccc(/C=N\N=C\c2ccc(OCCCC)cc2)cc1` as the compound, how does the T/C [6] read?
A: 90 % of control

Q: And the T/C [7]?
A: 88 % of control

Q: `O=C(O)C(O)C(O)C(O)C(O)CO` (centres undefined) was tested. Which T/C [2] did it give?
A: 106 % of control

Q: What about the T/C [4] of the same compound?
A: 96 % of control

Q: What about the T/C [5] of the same compound?
A: 96 % of control

Q: For `CC(C)(C)C1=CC(=O)C(C#N)=C(C#N)C1=O`, which T/C [2] is on record?
A: 96 % of control

Q: With `CC1(C)N=C(N)N=C(N)N1c1ccc(Oc2ccc(S(=O)(=O)F)cc2)cc1` as the compound, how does the T/C (dose: 50.0 mg/kg/injection, schedule: Q01DX001 (ip), vehicle: Klucel (hydroxypropylcellulose) (HPC)) read?
A: 92 % of control

Q: And the T/C (dose: 100.0 mg/kg/injection, schedule: Q01DX001 (ip), vehicle: Klucel (hydroxypropylcellulose) (HPC))?
A: 95 % of control

Q: What about the T/C (dose: 200.0 mg/kg/injection, schedule: Q01DX001 (ip), vehicle: Klucel (hydroxypropylcellulose) (HPC)) of the same compound?
A: 100 % of control

Q: How did the T/C [2] turn out when `CCn1nnnc1N` was run?
A: 91 % of control

Q: And the T/C [4]?
A: 94 % of control

Q: And the T/C [5]?
A: 102 % of control

Q: Which results are given for `CN(Cc1cnc2nc(N)nc(N)c2n1)c1c(F)cc(C(=O)NC(CCC(=O)O)C(=O)O)cc1F` (centres undefined)?
A: T/C (dose: 1.5 mg/kg/injection, schedule: Q01DX009 (ip), vehicle: sodium bicarbonate): 114 % of control; T/C (dose: 12.0 mg/kg/injection, schedule: Q01DX009 (ip), vehicle: sodium bicarbonate): 154 % of control

Q: Which results are given for `COCCOC(=O)c1ccc(C(N)=NC2CCCCC2)cc1`?
A: T/C (dose: 100.0 mg/kg/injection, schedule: Q01DX001 (ip), vehicle: saline): 96 % of control; T/C (dose: 200.0 mg/kg/injection, schedule: Q01DX001 (ip), vehicle: saline): 97 % of control

Q: How did the T/C (dose: 50.0 mg/kg/injection, schedule: Q01DX009 (ip), vehicle: saline with Tween-80) turn out when `O=S(=O)(c1ccc(N=Nc2ncc[nH]2)cc1)N(CCCl)CCCl` was run?
A: 90 % of control

Q: What about the T/C [6] of the same compound?
A: 94 % of control

Q: And the T/C [7]?
A: 90 % of control

Q: What does the source list for `C/C(Cl)=C/C(=O)O`?
A: T/C (dose: 25.0 mg/kg/injection, schedule: Q04DX002 (ip), vehicle: saline): 106 % of control; T/C (dose: 50.0 mg/kg/injection, schedule: Q04DX002 (ip), vehicle: saline): 92 % of control; T/C (dose: 100.0 mg/kg/injection, schedule: Q01DX001 (ip), vehicle: saline with Tween-80): 102 % of control; T/C (dose: 100.0 mg/kg/injection, schedule: Q04DX002 (ip), vehicle: saline): 92 % of control; T/C (dose: 200.0 mg/kg/injection, schedule: Q01DX001 (ip), vehicle: saline with Tween-80): 105 % of control; T/C (dose: 200.0 mg/kg/injection, schedule: Q04DX002 (ip), vehicle: saline): 98 % of control and 102 % of control; T/C (dose: 400.0 mg/kg/injection, schedule: Q01DX001 (ip), vehicle: saline with Tween-80): 96 % of control
